Experiments:
[1] = biological target: Vascular endothelial growth factor receptor 2 (Homo sapiens, UniProt P35968); experiment: Inhibition of recombinant KDR by HTRF assay
[2] = AUC (0 to infinity) in Sprague-Dawley rat at 1 mg/kg, iv or 10 mg/kg, po; type: ADME, organism-based; settings: plasma
HUVEC [3] = experiment: Inhibition of bFGF-stimulated HUVEC cell proliferation treated before 2 hrs of bFGF challenge assessed after 72 hrs; type: functional, cell-based; settings: Homo sapiens
[4] = Volume of distribution at steady state in Sprague-Dawley rat at 1 mg/kg, iv or 10 mg/kg, po; type: ADME, organism-based; settings: in vivo, read-out: Vdss
[5] = Bioavailability in Sprague-Dawley rat at 1 mg/kg, iv or 10 mg/kg, po; type: ADME, organism-based; settings: in vivo
[6] = Clearance in Sprague-Dawley rat at 1 mg/kg, iv or 10 mg/kg, po; type: ADME, organism-based; settings: in vivo
HUVEC [7] = experiment: Inhibition of VEGF-stimulated HUVEC cell proliferation treated before 2 hrs of VEGF challenge assessed after 72 hrs; type: functional, cell-based; settings: Homo sapiens
[8] = Half life in Sprague-Dawley rat at 1 mg/kg, iv or 10 mg/kg, po; type: ADME, organism-based; settings: in vivo
Aurora kinase A = biological target: T1, Aurora kinase A (Homo sapiens, UniProt O14965); experiment: Inhibition of aurora 2 kinase
T1 sequence (O14965 whole entry): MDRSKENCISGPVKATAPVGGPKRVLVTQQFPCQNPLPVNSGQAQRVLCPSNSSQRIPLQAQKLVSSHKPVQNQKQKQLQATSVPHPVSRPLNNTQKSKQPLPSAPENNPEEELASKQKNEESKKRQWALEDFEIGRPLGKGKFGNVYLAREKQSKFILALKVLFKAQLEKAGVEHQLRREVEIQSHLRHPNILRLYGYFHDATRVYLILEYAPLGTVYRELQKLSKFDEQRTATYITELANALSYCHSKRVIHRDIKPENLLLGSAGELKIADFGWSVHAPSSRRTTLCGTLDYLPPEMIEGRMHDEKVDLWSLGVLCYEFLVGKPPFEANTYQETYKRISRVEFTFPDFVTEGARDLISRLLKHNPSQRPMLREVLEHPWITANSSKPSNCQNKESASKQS

Aurora kinase B = Aurora kinase B (Homo sapiens, UniProt Q96GD4); experiment: Inhibition of aurora 1 kinase
[9] = biological target: Mitogen-activated protein kinase 14 (Homo sapiens, UniProt Q16539); experiment: Inhibition of p38alpha
[10] = biological target: Phosphatidylinositol 4,5-bisphosphate 3-kinase catalytic subunit alpha isoform (Homo sapiens, UniProt P42336); experiment: Inhibition of PI3K
Mus musculus [11] = experiment: Plasma concentration in mouse VEGF expressing HEK293 cells xenografted in athymic nude mouse at 10 mg/kg, po; type: ADME, organism-based; set-up: dose 10 mg/kg, route oral; settings: in vivo
[12] = biological target: Hepatocyte growth factor receptor (Homo sapiens, UniProt P08581); experiment: Inhibition of cMET
HEK293 = experiment: Inhibition of vascular permeability in mouse VEGF expressing HEK293 cells xenografted in po dosed athymic nude mouse; type: functional, organism-based; settings: Homo sapiens
Mus musculus [13] = experiment: Plasma concentration in mouse VEGF expressing HEK293 cells xenografted in athymic nude mouse at 30 mg/kg, po; type: ADME, organism-based; set-up: dose 30 mg/kg, route oral; settings: in vivo
Angiopoietin-1 receptor = Angiopoietin-1 receptor (Homo sapiens, UniProt Q02763); experiment: Inhibition of Tie 2
Angiopoietin-1 receptor, sequence (Q02763 whole entry): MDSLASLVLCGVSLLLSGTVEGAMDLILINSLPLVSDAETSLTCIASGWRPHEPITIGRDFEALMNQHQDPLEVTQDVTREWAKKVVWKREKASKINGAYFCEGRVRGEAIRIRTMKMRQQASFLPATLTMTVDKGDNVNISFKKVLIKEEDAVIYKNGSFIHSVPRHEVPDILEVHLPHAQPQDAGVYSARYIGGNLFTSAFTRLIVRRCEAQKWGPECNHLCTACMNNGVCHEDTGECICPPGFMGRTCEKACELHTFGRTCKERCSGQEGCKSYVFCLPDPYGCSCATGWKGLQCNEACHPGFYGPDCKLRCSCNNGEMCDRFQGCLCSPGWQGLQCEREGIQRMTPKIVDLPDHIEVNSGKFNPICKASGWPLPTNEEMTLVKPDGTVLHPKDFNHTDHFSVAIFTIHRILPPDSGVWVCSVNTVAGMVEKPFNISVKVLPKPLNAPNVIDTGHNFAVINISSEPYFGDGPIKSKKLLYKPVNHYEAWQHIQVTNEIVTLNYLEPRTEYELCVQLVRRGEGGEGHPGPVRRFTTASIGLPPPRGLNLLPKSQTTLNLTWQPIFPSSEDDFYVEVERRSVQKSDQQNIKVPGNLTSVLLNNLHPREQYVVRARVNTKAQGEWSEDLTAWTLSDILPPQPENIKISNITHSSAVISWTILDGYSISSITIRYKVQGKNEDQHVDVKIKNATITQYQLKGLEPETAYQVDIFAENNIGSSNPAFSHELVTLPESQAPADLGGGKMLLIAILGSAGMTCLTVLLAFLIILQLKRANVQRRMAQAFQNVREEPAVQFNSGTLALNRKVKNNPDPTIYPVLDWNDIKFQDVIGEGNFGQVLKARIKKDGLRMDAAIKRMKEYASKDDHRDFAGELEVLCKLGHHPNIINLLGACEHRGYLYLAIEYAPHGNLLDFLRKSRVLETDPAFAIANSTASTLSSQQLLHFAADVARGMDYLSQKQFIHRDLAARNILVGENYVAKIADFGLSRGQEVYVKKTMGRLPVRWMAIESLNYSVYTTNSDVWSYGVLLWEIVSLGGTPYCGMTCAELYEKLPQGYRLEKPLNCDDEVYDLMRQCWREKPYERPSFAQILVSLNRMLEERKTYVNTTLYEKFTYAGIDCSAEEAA

Vascular endothelial growth factor receptor 2, sequence (P35968 whole entry): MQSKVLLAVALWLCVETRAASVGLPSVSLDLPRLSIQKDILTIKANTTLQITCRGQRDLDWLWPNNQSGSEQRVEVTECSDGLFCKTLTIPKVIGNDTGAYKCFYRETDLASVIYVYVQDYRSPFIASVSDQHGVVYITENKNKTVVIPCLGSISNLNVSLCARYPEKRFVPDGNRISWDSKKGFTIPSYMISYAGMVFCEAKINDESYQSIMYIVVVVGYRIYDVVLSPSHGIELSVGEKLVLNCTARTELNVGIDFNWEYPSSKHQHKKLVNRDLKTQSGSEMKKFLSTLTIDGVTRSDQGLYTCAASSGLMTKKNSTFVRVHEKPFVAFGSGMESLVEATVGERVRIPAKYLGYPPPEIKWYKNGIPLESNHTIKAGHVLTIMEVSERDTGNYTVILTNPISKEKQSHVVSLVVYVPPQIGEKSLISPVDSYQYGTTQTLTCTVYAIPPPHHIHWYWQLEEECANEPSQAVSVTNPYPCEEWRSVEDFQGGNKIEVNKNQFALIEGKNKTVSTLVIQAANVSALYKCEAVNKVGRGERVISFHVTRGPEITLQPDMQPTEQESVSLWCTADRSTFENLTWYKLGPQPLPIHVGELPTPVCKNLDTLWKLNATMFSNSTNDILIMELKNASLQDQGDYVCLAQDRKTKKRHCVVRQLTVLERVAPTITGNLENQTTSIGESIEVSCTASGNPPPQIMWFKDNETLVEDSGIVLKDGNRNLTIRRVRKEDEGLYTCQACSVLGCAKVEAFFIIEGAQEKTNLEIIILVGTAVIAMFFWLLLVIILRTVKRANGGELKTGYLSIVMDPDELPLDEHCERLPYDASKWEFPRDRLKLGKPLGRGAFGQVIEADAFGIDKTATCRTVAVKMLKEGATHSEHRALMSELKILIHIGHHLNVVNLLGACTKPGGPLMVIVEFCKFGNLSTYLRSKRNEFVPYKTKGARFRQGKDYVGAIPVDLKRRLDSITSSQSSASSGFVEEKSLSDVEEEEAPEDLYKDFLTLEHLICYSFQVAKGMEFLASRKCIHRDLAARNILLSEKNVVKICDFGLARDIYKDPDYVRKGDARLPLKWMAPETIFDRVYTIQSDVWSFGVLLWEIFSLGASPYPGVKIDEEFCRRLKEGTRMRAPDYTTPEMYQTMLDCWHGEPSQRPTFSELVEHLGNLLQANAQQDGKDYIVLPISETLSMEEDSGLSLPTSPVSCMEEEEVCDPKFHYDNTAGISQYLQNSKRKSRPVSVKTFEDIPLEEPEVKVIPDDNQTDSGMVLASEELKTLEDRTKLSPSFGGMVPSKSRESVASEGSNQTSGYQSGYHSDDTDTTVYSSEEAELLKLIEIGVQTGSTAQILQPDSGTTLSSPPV
Hepatocyte growth factor receptor, sequence (P08581 whole entry): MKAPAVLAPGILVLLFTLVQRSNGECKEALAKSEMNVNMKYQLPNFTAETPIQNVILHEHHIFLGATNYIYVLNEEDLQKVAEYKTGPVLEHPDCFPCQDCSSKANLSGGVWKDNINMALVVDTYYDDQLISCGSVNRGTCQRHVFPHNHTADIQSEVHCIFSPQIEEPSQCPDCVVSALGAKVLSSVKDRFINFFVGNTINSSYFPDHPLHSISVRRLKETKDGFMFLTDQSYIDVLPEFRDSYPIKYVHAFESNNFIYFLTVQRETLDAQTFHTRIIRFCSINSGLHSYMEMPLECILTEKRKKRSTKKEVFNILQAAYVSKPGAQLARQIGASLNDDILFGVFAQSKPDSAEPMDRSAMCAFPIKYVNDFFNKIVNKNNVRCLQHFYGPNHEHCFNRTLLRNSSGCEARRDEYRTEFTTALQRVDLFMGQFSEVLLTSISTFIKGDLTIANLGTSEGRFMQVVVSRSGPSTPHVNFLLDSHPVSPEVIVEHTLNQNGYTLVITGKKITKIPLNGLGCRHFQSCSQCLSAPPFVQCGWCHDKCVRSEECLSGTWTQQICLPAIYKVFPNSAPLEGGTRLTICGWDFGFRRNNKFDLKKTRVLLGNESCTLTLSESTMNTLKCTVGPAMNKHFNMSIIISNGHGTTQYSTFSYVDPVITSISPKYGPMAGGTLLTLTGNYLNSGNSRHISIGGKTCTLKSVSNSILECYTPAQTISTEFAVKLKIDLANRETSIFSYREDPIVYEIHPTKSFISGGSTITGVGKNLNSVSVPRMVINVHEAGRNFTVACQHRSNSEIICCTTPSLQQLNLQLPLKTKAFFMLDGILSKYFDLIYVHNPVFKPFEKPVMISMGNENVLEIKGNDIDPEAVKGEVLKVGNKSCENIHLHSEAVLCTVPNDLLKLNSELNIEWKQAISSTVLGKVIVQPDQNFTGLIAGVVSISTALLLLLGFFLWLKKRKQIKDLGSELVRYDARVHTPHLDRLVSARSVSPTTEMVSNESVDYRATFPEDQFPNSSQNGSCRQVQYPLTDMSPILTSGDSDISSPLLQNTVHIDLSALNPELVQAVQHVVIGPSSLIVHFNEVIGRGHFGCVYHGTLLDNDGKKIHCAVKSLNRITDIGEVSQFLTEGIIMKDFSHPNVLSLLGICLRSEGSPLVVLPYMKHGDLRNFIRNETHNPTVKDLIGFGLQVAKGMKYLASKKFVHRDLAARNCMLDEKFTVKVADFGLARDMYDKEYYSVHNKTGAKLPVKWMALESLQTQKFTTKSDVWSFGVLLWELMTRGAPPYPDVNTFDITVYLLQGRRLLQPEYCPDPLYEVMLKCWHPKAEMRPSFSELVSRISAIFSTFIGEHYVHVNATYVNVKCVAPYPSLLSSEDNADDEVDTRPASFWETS
Aurora kinase B, sequence (Q96GD4 whole entry): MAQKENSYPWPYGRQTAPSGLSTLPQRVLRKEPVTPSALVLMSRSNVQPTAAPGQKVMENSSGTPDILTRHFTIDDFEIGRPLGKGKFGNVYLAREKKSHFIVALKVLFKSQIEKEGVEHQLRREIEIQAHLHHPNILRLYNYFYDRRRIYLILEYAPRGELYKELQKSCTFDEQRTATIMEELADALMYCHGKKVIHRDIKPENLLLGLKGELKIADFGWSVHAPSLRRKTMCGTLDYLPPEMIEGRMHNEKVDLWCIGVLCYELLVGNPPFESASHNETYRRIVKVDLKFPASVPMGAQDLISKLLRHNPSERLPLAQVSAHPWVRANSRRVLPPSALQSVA
Mitogen-activated protein kinase 14, sequence (Q16539 whole entry, canonical isoform): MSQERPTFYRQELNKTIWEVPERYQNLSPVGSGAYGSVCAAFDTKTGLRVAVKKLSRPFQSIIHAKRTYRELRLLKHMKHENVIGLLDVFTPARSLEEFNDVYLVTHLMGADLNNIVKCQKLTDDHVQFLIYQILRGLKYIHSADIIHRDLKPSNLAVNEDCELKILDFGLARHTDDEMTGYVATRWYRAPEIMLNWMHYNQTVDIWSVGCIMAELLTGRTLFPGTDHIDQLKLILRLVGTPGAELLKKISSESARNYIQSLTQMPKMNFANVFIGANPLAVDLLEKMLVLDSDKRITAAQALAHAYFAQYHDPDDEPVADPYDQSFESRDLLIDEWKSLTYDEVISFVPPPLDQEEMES

SMILES	IC50 [1] [nM]	IC50 (HUVEC [3]) [nM]	IC50 (HUVEC [7]) [nM]	also measured
CCCCNc1nn(C)c2cc(Oc3ccnc4cc(OC)c(OC)cc34)ccc12	800	> 1000	–	–
COc1cc2nccc(Oc3ccc4c(NC(=O)c5cc(C(F)(F)F)cc(C(F)(F)F)c5)nn(C)c4c3)c2cc1OC	2	> 1000	58	–
COc1cc2nccc(Oc3ccc4c(NC(=O)c5cccc(C(F)(F)F)c5)nn(C)c4c3)c2cc1OC	1	> 1000	9	IC50 (Aurora kinase A): 764 nM; IC50 (Aurora kinase B): 45 nM; IC50 [9]: 1650 nM; IC50 [10]: 3250 nM; Cp (Mus musculus [11]): 181 ng/mL; IC50 [12]: 3320 nM; AUC(0-inf) [2]: 1530 ng·h/mL; Activity (HEK293): Dose-dependent effect; Vd [4]: 1.4 L/kg; bioavailability [5]: 46%; clearance [6]: 11.7 mL/min/kg; Cp (Mus musculus [13]): 347 ng/mL; half-life [8]: 2.2 h; IC50 (Angiopoietin-1 receptor): 121 nM
COc1cc2nccc(Oc3ccc4c(NC(=O)c5ccc(F)c(Cl)c5)nn(C)c4c3)c2cc1OC	3	> 1000	9	Vd [4]: 2.1 L/kg; clearance [6]: 21.7 mL/min/kg; half-life [8]: 1.5 h
COc1ccccc1Nc1cccc2cc(Oc3ccnc4cc(OC)c(OC)cc34)ccc12	1	–	–	–
COc1cc2nccc(Oc3ccc4c(NC(=O)c5ccc(C(F)(F)F)cc5)nn(C)c4c3)c2cc1OC	3	> 1000	79	–
COc1cc2nccc(Oc3ccc4c(N)nn(C)c4c3)c2cc1OC	1700	> 1000	–	–
COc1cc2nccc(Oc3ccc4c(NC(=O)Nc5ccc(C(F)(F)F)cc5Cl)nn(C)c4c3)c2cc1OC	8	> 1000	1150	–
COc1cc2nccc(Oc3ccc4c(NC(=O)C5CC5)nn(C)c4c3)c2cc1OC	344	> 1000	–	–
COc1cc2nccc(Oc3ccc4c(Nc5ccccc5)cccc4c3)c2cc1OC	2	–	–	–
COc1cc2nccc(Oc3ccc4c(NC(=O)c5cc(Cl)ccn5)nn(C)c4c3)c2cc1OC	2	> 1000	27	–

More lines, main results first:

IC50 [1] [nM]	SMILES	IC50 (HUVEC [3]) [nM]	IC50 (HUVEC [7]) [nM]	also measured
2	COc1cc2nccc(Oc3ccc4c(NC(=O)Nc5ccccc5)nn(C)c4c3)c2cc1OC	> 1000	6	AUC(0-inf) [2]: 121 ng·h/mL; Vd [4]: 2 L/kg; bioavailability [5]: 2%; clearance [6]: 6.67 mL/min/kg; half-life [8]: 4.3 h
60	COc1cc2nccc(Oc3ccc4c(NCc5ccccc5)nn(C)c4c3)c2cc1OC	> 1000	–	–
230	COc1cccc(Nc2nn(C)c3cc(Oc4ccnc5cc(OC)c(OC)cc45)ccc23)c1	> 1000	–	–
8	COc1cc2nccc(Oc3ccc4c(NC(=O)c5ccccc5Cl)nn(C)c4c3)c2cc1OC	> 1000	–	–
370	CCNc1nn(C)c2cc(Oc3ccnc4cc(OC)c(OC)cc34)ccc12	> 1000	–	–
2	COc1cc2nccc(Oc3ccc4c(NC(=O)Nc5ccc(C)cc5)nn(C)c4c3)c2cc1OC	> 1000	3	–
1	COc1ccc(NC(=O)Nc2nn(C)c3cc(Oc4ccnc5cc(OC)c(OC)cc45)ccc23)cc1	> 1000	7	–
1110	CCCNc1nn(C)c2cc(Oc3ccnc4cc(OC)c(OC)cc34)ccc12	> 1000	–	–
3	COc1ccc(C(=O)Nc2nn(C)c3cc(Oc4ccnc5cc(OC)c(OC)cc45)ccc23)cc1	> 1000	32	–
2	COc1cc2nccc(Oc3ccc4c(NC(=O)c5cccc(C)c5)nn(C)c4c3)c2cc1OC	> 1000	2	AUC(0-inf) [2]: 153 ng·h/mL; Vd [4]: 2.4 L/kg; bioavailability [5]: 12%; clearance [6]: 20 mL/min/kg; half-life [8]: 2.7 h
270	COc1cc2nccc(Oc3ccc4c(Nc5ccccc5)nn(C)c4c3)c2cc1OC	> 1000	–	–
70	COc1cc2nccc(Oc3ccc4c(Nc5ccc(C(F)(F)F)cc5)nn(C)c4c3)c2cc1OC	> 1000	–	–
5	COc1cc2nccc(Oc3ccc4c(NC(=O)c5ccc(Cl)cc5)nn(C)c4c3)c2cc1OC	> 1000	61	–
160	COc1ccc(Nc2nn(C)c3cc(Oc4ccnc5cc(OC)c(OC)cc45)ccc23)cc1	> 1000	–	–
